These results are taken from US8574563B2 (Bristol-Myers Squibb Company, priority 2006, dated 2013).

Broadly, the EC50 is the midpoint of the concentration-response curve.

The first experiment relates to HCV 1b-377-neo replicon cells. The experiment is described as follows: HCV replicon assay, HCV 1b-377-neo replicon cells (1b FRET). Format: cell-based, Hepatitis C virus genotype 1b. The settings on record: HCV 1b-377-neo replicon cells; HCV 1b genotype; read-out: EC50 range against HCV 1b (Table 2, Range). The gist of the method: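 Compounds tested in HCV genotype 1b-377-neo replicon cells with a FRET read-out. Cells resistant to a reference NS5A inhibitor through a Y2065H NS5A mutation were run alongside wild-type cells.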
(A replicon is a self-replicating genome or part of one, used to study replication in cells.)
In the case of `CN(C)[C@@H](C(=O)N1CCC[C@H]1c1nc(-c2ccc(-c3ccc(-c4cn(C)c([C@@H]5CCCN5C(=O)[C@@H](c5ccccc5)N(C)C)n4)cc3)cc2)cn1C)c1ccccc1` (single isomer, unassigned) [151 isomer 1], the concentration giving a half-maximal response (EC50) was 1 to 99 nM. The same measure, in the same setting: the value for `COC(=O)N[C@@H](CCN1CCOCC1)C(=O)N1CCC[C@H]1c1ncc(-c2ccc(-c3ccc(-c4cnc([C@@H]5CCCN5C(=O)[C@@H](NC(=O)OC)C(C)C)[nH]4)cc3)cc2)[nH]1` [Example M68] was 100 to 999 nM.

The experiment is the same for the next values; noted with them: Hepatitis C virus, HCV 1b-377-neo replicon cells; HCV 1b genotype; read-out: EC50 range against HCV 1b (Table 2, Range).
Turning to `COC(=O)N[C@@H](C(=O)N1CCC[C@H]1c1ncc(-c2ccc(-c3ccc(-c4cnc([C@@H]5CCCN5C(=O)[C@@H](c5ccccc5)N5CCC(C)(O)CC5)[nH]4)cc3)cc2)[nH]1)c1ccccc1Cl` [Example 107-42, methyl ((1R)-1-(2-chlorophenyl)-2-((2S)-2-(5-(4′-(2-((2S)-1-((2R)-2-(4-hydroxy-4-methyl-1-piperidinyl)-2-phenylacetyl)-2-pyrrolidinyl)-1H-imidazol-5-yl)-4-biphenylyl)-1H-imidazol-2-yl)-1-pyrrolidinyl)-2-oxoethyl) carbamate], the EC50 lay within 0.001 to 0.999 nM. `COC(=O)N[C@H](C(=O)N1CCC[C@H]1c1ncc(-c2ccc(-c3ccc(-c4cnc([C@@H]5CCCN5C(=O)CNC(C)C)[nH]4)cc3)cc2)[nH]1)C(C)C` [LS25, methyl ((1S)-1-(((2S)-2-(5-(4′-(2-((2S)-1-(N-isopropylglycyl)-2-pyrrolidinyl)-1H-imidazol-5-yl)-4-biphenylyl)-1H-imidazol-2-yl)-1-pyrrolidinyl)carbonyl)-2-methylpropyl)carbamate]: the EC50 lay within 0.001 to 0.999 nM. Regarding `CN(C)[C@@H](C(=O)N1CCC[C@H]1c1ncc(-c2ccc(-c3ccc(-c4cnc([C@@H]5CCCN5C(=O)[C@@H]5CCN(Cc6ccccc6)C5)[nH]4)cc3)cc2)[nH]1)c1ccccc1` [Example 94-17, (1R)-2-((2S)-2-(5-(4′-(2-((2S)-1-(((3R)-1-benzyl-3-pyrrolidinyl)carbonyl)-2-pyrrolidinyl)-1H-imidazol-5-yl)-4-biphenylyl)-1H-imidazol-2-yl)-1-pyrrolidinyl)-N,N-dimethyl-2-oxo-1-phenylethanamine], the EC50 was in the range of 0.001 to 0.999 nM.

As for `O=C1CN(C(C(=O)N2CCC[C@H]2c2ncc(-c3ccc(-c4ccc(-c5c[nH]c([C@@H]6CCCN6C(=O)[C@H]6CCCO6)n5)cc4)cc3)[nH]2)c2ccccc2)CCN1` (stereo partly drawn) [Example 103-8, 4-(2-oxo-1-phenyl-2-((2S)-2-(5-(4′-(2-((2S)-1-((2R)-tetrahydro-2-furanylcarbonyl)-2-pyrrolidinyl)-1H-imidazol-4-yl)-4-biphenylyl)-1H-imidazol-2-yl)-1-pyrrolidinyl)ethyl)-2-piperazinone], the concentration giving a half-maximal response (EC50) was in the range of 0.001 to 0.999 nM.

Regarding `CCN(CC)[C@@H](C(=O)N1CCC[C@H]1c1ncc(-c2ccc(-c3ccc(-c4cnc([C@@H]5CCCN5C(=O)[C@@H]5CCC(=O)N5)[nH]4)cc3)cc2)[nH]1)c1ccccc1` [Example M32, (5S)-5-(((2S)-2-(5-(4′-(2-((2S)-1-((2R)-2-(diethylamino)-2-phenylacetyl)-2-pyrrolidinyl)-1H-imidazol-5-yl)-4-biphenylyl)-1H-imidazol-2-yl)-1-pyrrolidinyl)carbonyl)-2-pyrrolidinone], the concentration for a half-maximal effect (EC50) lay in the range of 100 to 999 nM. Consider `COC(=O)N[C@@H](C(=O)N1CCC[C@H]1c1ncc(-c2ccc(-c3ccc(-c4cnc([C@@H]5CCCN5C(=O)[C@@H](c5ccccc5)N5CCCCC5)[nH]4)cc3)cc2)[nH]1)c1ccccc1` [Example 84-1, methyl ((1R)-2-oxo-1-phenyl-2-((2S)-2-(5-(4′-(2-((2S)-1-((2R)-2-phenyl-2-(1-piperidinyl)acetyl)-2-pyrrolidinyl)-1H-imidazol-5-yl)-4-biphenylyl)-1H-imidazol-2-yl)-1-pyrrolidinyl)ethyl)carbamate], for which the EC50 lay in the range of 0.001 to 0.999 nM. With `COC(=O)N[C@@H](C)C(=O)N1CCC[C@H]1c1ncc(-c2ccc(-c3ccc(-c4cnc([C@@H]5CCCN5C(=O)[C@H]5CCCC[C@H]5NC(=O)OC)[nH]4)cc3)cc2)[nH]1` [cj-96, methyl ((1R,2S)-2-(((2S)-2-(5-(4′-(2-((2S)-1-(N-(methoxycarbonyl)-L-alanyl)-2-pyrrolidinyl)-1H-imidazol-5-yl)-4-biphenylyl)-1H-imidazol-2-yl)-1-pyrrolidinyl)carbonyl)cyclohexyl)carbamate], the 50% effective concentration (EC50) was in the range of 0.001 to 0.999 nM. Regarding `CNC(=O)N[C@@H](C(=O)N1CCC[C@H]1c1ncc(-c2ccc(-c3ccc(-c4cnc([C@@H]5CCCN5C(=O)[C@H](NC(=O)NC)c5ccccc5)[nH]4)cc3)cc2)[nH]1)c1ccccc1` [Example 24-4b, N′,N′′′-(4,4′-biphenyldiylbis(1H-imidazole-5,2-diyl(2S)-2,1-pyrrolidinediyl((1R)-2-oxo-1-phenyl-2,1-ethanediyl)))bis(1-methylurea)], the concentration for a half-maximal effect (EC50) is 1 to 99 nM. In the case of `CC[C@H](NC(=O)OC)C(=O)N1CCC[C@H]1c1ncc(-c2ccc(-c3ccc(-c4cnc([C@@H]5CCCN5C(=O)[C@@H](c5ccccc5)N(CC)CC)[nH]4)cc3)cc2)[nH]1` [Example M55, methyl ((1S)-1-(((2S)-2-(5-(4′-(2-((2S)-1-((2R)-2-(diethylamino)-2-phenylacetyl)-2-pyrrolidinyl)-1H-imidazol-5-yl)-4-biphenylyl)-1H-imidazol-2-yl)-1-pyrrolidinyl)carbonyl)propyl)carbamate], the EC50 was 1 to 99 nM. Still for that read-out and setting: with `COC(=O)N[C@@H](C)C(=O)N1CCC[C@H]1c1ncc(-c2ccc(-c3ccc(-c4cnc([C@@H]5CCCN5C(=O)[C@H](Cc5ccc(O)cc5)NC(=O)OC)[nH]4)cc3)cc2)[nH]1` [cj-113, methyl ((1S)-1-(4-hydroxybenzyl)-2-((2S)-2-(5-(4′-(2-((2S)-1-(N-(methoxycarbonyl)-L-alanyl)-2-pyrrolidinyl)-1H-imidazol-5-yl)-4-biphenylyl)-1H-imidazol-2-yl)-1-pyrrolidinyl)-2-oxoethyl)carbamate] the figure was 0.001 to 0.999 nM; with `O=C1C[C@@H](C(=O)N2CCC[C@H]2c2ncc(-c3ccc(-c4ccc(-c5cnc([C@@H]6CCCN6C(=O)[C@@H]6CC(=O)NC(=O)N6)[nH]5)cc4)cc3)[nH]2)NC(=O)N1` [cj-132, (6S,6′S)-6,6′-(4,4′-biphenyldiylbis(1H-imidazole-5,2-diyl(2S)-2,1-pyrrolidinediylcarbonyl))didihydro-2,4(1H,3H)-pyrimidinedione], 100 to 999 nM.

Turning to `O=C([C@H](O)c1ccccc1)N1CCC[C@H]1c1ncc(-c2ccc(-c3ccc(-c4cnc([C@@H]5CCCN5C(=O)[C@H](O)c5ccccc5)[nH]4)cn3)cc2)[nH]1` [Example 133, (1R)-2-((2S)-2-(5-(6-(4-(2-((2S)-1-((2R)-2-hydroxy-2-phenylacetyl)-2-pyrrolidinyl)-1H-imidazol-5-yl)phenyl)-3-pyridinyl)-1H-imidazol-2-yl)-1-pyrrolidinyl)-2-oxo-1-phenylethanol], the EC50 was 1 to 99 nM. Turning to `COC(=O)N[C@@H](C(=O)N1[C@H](c2ncc(-c3ccc(-c4ccc(-c5cnc([C@@H]6C[C@@H]7C[C@@H]7N6C(=O)[C@H](NC(=O)OC)c6ccccc6)[nH]5)cc4)cc3)[nH]2)C[C@@H]2C[C@@H]21)c1ccccc1` [Example M124, dimethyl (4,4′-biphenyldiylbis(1H-imidazole-5,2-diyl(1S,3S,5S)-2-azabicyclo[3.1.0]hexane-3,2-diyl((1R)-2-oxo-1-phenyl-2,1-ethanediyl)))biscarbamate], the EC50 fell in the range of 1 to 99 nM. The same measure, in the same setting: with `COC(=O)N[C@@H](C(=O)N1CCC[C@H]1c1ncc(-c2ccc(-c3ccc(-c4cnc([C@@H]5CCCN5C(=O)[C@@H](c5ccccc5)N5CCC(C)(O)CC5)[nH]4)cc3)cc2)[nH]1)c1ccccc1` [Example 84-4, methyl ((1R)-2-((2S)-2-(5-(4′-(2-((2S)-1-((2R)-2-(4-hydroxy-4-methyl-1-piperidinyl)-2-phenylacetyl)-2-pyrrolidinyl)-1H-imidazol-5-yl)-4-biphenylyl)-1H-imidazol-2-yl)-1-pyrrolidinyl)-2-oxo-1-phenylethyl)carbamate] the figure was 0.001 to 0.999 nM; with `CCN(CC)[C@@H](C(=O)N1CCC[C@H]1c1ncc(-c2cnc(-c3ccc(-c4[nH]c([C@@H]5CCCN5C(=O)[C@@H](c5ccccc5)N(CC)CC)nc4C(F)(F)F)cc3)nc2)[nH]1)c1ccccc1` [Example J47, (1R)-2-((2S)-2-(5-(4-(5-(2-((2S)-1-((2R)-2-(diethylamino)-2-phenylacetyl)-2-pyrrolidinyl)-1H-imidazol-5-yl)-2-pyrimidinyl)phenyl)-4-(trifluoromethyl)-1H-imidazol-2-yl)-1-pyrrolidinyl)-N,N-diethyl-2-oxo-1-phenylethanamine], 0.001 to 0.999 nM. Take `COC(=O)N[C@@H](C(=O)N1CCC[C@H]1c1ncc(-c2ccc(-c3ccc(-c4cnc([C@@H]5CCCN5C(=O)[C@@H]5CCCN5)[nH]4)cc3)cc2)[nH]1)c1ccccc1` [Example 80, methyl ((1R)-2-oxo-1-phenyl-2-((2S)-2-(5-(4′-(2-((2S)-1-L-prolyl-2-pyrrolidinyl)-1H-imidazol-5-yl)-4-biphenylyl)-1H-imidazol-2-yl)-1-pyrrolidinyl)ethyl)carbamate]: the EC50 fell in the range of 0.001 to 0.999 nM. Consider `CCN(CC)[C@@H](C(=O)N1CCC[C@H]1c1ncc(-c2ccc(-c3ccc(-c4cnc([C@@H]5CCCN5C(=O)[C@H](Cc5ccncc5)NC(=O)OC)[nH]4)cc3)cc2)[nH]1)c1ccccc1` [cj-89, methyl ((1S)-2-((2S)-2-(5-(4′-(2-((2S)-1-((2R)-2-(diethylamino)-2-phenylacetyl)-2-pyrrolidinyl)-1H-imidazol-5-yl)-4-biphenylyl)-1H-imidazol-2-yl)-1-pyrrolidinyl)-2-oxo-1-(4-pyridinylmethyl)ethyl)carbamate], for which the EC50 lay in the range of 0.001 to 0.999 nM. As for `COC(=O)N[C@@H](C(=O)N1CCC[C@H]1c1ncc(-c2ccc(-c3ccc(-c4cnc([C@@H]5CCCN5C(=O)[C@@H](c5ccccc5Cl)N(C)C)[nH]4)cc3)cc2)[nH]1)c1ccccc1` [Example 107-36, methyl ((1R)-2-((2S)-2-(5-(4′-(2-((2S)-1-(2R)-2-(2-chlorophenyl)-2-(dimethylamino)acetyl)-2-pyrrolidinyl)-1H-imidazol-5-yl)-4-biphenylyl)-1H-imidazol-2-yl)-1-pyrrolidinyl)-2-oxo-1-phenylethyl) carbamate], the EC50 lay in the range of 0.001 to 0.999 nM.
